Results: PubChem BioAssay (NCI)
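Test compounds were applied to cells in 96-well plates for 48 hours at 5 doses. Here, GI50 denotes the concentration required for 50% inhibition of growth. At the TGI there is no net growth.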

Legend:
Test in all cases: DTP human tumour cell line panel, 48 h
[1] = test system: SR leukemia
[2] = test system: EKVX NSCLC
[3] = test system: SF-295 CNS
[4] = test system: PC-3 prostate
[5] = test system: TK-10 renal
[6] = test system: HT29 colon
[7] = test system: HS 578T breast
[8] = test system: COLO 205 colon
[9] = test system: U251 CNS
[10] = test system: SK-MEL-2 melanoma
[11] = test system: SK-OV-3 ovarian
[12] = test system: OVCAR-5 ovarian
[13] = test system: NCI-H522 lung
[14] = test system: HL-60(TB) leukemia
[15] = test system: MOLT-4 leukemia
[16] = test system: IGROV1 ovarian
[17] = test system: K-562 leukemia
[18] = test system: UACC-62 melanoma
[19] = test system: BT-549 breast
[20] = test system: SN12C renal
[21] = test system: HOP-92 NSCLC
[22] = test system: SNB-75 CNS
[23] = test system: SK-MEL-28 melanoma
[24] = test system: NCI-H226 lung
[25] = test system: MCF7 breast
[26] = test system: OVCAR-4 ovarian
[27] = test system: ACHN renal
[28] = test system: RXF 393 renal
[29] = test system: HCT-116 colon
[30] = test system: HCT-15 colon
[31] = test system: HCC-2998 colon
[32] = test system: A549 NSCLC
[33] = test system: OVCAR-8 ovarian
[34] = test system: DU-145 prostate
[35] = test system: KM12 colon
[36] = test system: NCI-H460 lung
[37] = test system: T-47D breast
[38] = test system: A498 renal
[39] = test system: NCI-H23 lung
[40] = test system: MDA-MB-435
[41] = test system: CAKI-1 renal
[42] = test system: UO-31 renal
[43] = test system: SF-268 CNS
[44] = test system: 786-0 renal
[45] = test system: HOP-62 NSCLC
[46] = test system: RPMI-8226 leukemia
[47] = test system: SF-539 CNS
[48] = test system: SW-620 colon
[49] = test system: CCRF-CEM leukemia
[50] = test system: SK-MEL-5 melanoma
[51] = test system: NCI/ADR-RES ovarian
[52] = test system: OVCAR-3 ovarian
[53] = test system: LOX IMVI melanoma
[54] = test system: MDA-MB-231 breast
[55] = test system: SNB-19 CNS
[56] = test system: M14 melanoma

CS(=O)(=O)N(c1cc(-c2ccc3ncnc(Nc4cccc(Cl)c4)c3c2)cnc1Cl)S(C)(=O)=O
GI50 [1]: 696 nM
TGI [1]: 6680 nM
GI50 [2]: 357 nM
TGI [2]: 2250 nM
GI50 [3]: 542 nM
TGI [3]: 3170 nM
GI50 [4]: 539 nM
TGI [4]: 3630 nM
GI50 [5]: 145 nM
TGI [5]: 985 nM
GI50 [6]: 364 nM
TGI [6]: 58800 nM
GI50 [7]: 236 nM
TGI [7]: 6080 nM
GI50 [8]: 421 nM
TGI [8]: 2040 nM
GI50 [9]: 782 nM
TGI [9]: 8070 nM
GI50 [10]: 469 nM
TGI [10]: 2090 nM
GI50 [11]: 316 nM
TGI [11]: 1810 nM
GI50 [12]: 181 nM
TGI [12]: 6550 nM
GI50 [13]: 645 nM
TGI [13]: 7740 nM
GI50 [14]: 284 nM
TGI [14]: 6480 nM
GI50 [15]: 334 nM
TGI [15]: 1310 nM
GI50 [16]: 95.1 nM
TGI [16]: 528 nM
GI50 [17]: 1230 nM
TGI [17]: 45100 nM
GI50 [18]: 312 nM
TGI [18]: 2210 nM
GI50 [19]: 318 nM
TGI [19]: 3030 nM
GI50 [20]: 386 nM
TGI [20]: 17000 nM
GI50 [21]: 158 nM
TGI [21]: 891 nM
GI50 [22]: 40.6 nM
TGI [22]: 641 nM
GI50 [23]: 306 nM
TGI [23]: 11100 nM
GI50 [24]: 1040 nM
TGI [24]: 9750 nM
GI50 [25]: 230 nM
TGI [25]: 9690 nM
GI50 [26]: 1040 nM
TGI [26]: 10400 nM
GI50 [27]: 412 nM
TGI [27]: > 100000 nM
GI50 [28]: 231 nM
TGI [28]: 910 nM
GI50 [29]: 622 nM
TGI [29]: 3740 nM
GI50 [30]: 403 nM
TGI [30]: 6990 nM
GI50 [31]: 690 nM
TGI [31]: 2530 nM
GI50 [32]: 1030 nM
TGI [32]: 4240 nM
GI50 [33]: 1580 nM
TGI [33]: > 100000 nM
GI50 [34]: 508 nM
TGI [34]: 14100 nM
GI50 [35]: 1210 nM
TGI [35]: 4720 nM
GI50 [36]: 591 nM
TGI [36]: > 100000 nM
GI50 [37]: 43 nM
TGI [37]: 618 nM
GI50 [38]: 68.5 nM
TGI [38]: 388 nM
GI50 [39]: 417 nM
TGI [39]: 3720 nM
GI50 [40]: 443 nM
TGI [40]: 4070 nM
GI50 [41]: 281 nM
TGI [41]: 2080 nM
GI50 [42]: 232 nM
TGI [42]: 2520 nM
GI50 [43]: 490 nM
TGI [43]: 12700 nM
GI50 [44]: 506 nM
TGI [44]: 6760 nM
GI50 [45]: 443 nM
TGI [45]: 12800 nM
GI50 [46]: 522 nM
TGI [46]: 3620 nM
GI50 [47]: 533 nM
TGI [47]: 4330 nM
GI50 [48]: 742 nM
TGI [48]: 13400 nM
GI50 [49]: 520 nM
TGI [49]: 89300 nM
GI50 [50]: 306 nM
TGI [50]: 1410 nM
GI50 [51]: 1500 nM
TGI [51]: 12400 nM
GI50 [52]: 333 nM
TGI [52]: 1880 nM
GI50 [53]: 427 nM
TGI [53]: 2260 nM
GI50 [54]: 925 nM
TGI [54]: 6210 nM
GI50 [55]: 936 nM
TGI [55]: 7890 nM
GI50 [56]: 598 nM
TGI [56]: 4400 nM
